Experimental data from patent US20250034216A1, “STEREOSELECTIVE COVALENT LIGANDS FOR ONCOGENIC AND IMMUNOLOGICAL PROTEINS” (The Scripps Research Institute, priority 2021, published 2025).

Target: T1, PSME1_C106 and PSME2_C91 (Homo sapiens, UniProt Q06323)
T1 construct: endogenous in cells; host or cells: 22Rv1
Assay: IA-DTB cysteine reactivity
Format: binding
Conditions: 22Rv1 cells, 20 μM, 1 h
Procedure: Sample preparation: Cells (adherent: 15 cm dishes, suspension: 2 million cells/mL) were treated with electrophilic probes in situ for indicated times and concentrations, washed with ice-cold PBS, and flash frozen in liquid nitrogen. Cell pellets were lysed by sonication (8 pulses, 40% power) in 500 μL ice-cold PBS supplemented with cOmplete protease inhibitors (1 tablet/10 mL of PBS). Whole cell lysates protein content was measured using a standard DC protein assay (Bio-Rad) and 500 μL (2 mg/mL protein content) were treated with 5 μL of 10 mM 1A-DTB (in DMSO) for 1 h at ambient temperature with occasional vortexing. Samples were methanol-chloroform precipitated with the addition of 500 μL ice-cold MeOH and 200 μL CHCl3, vortexed, and centrifuged (10 min, 10,000 g). Without disrupting the protein disk, both top and bottom layers were aspirated and the protein disk was washed with 1 mL ice-cold MeOH and centrifuged (10 min, 10,000 g). The pellets were allowed to air dry, and then re-suspended in 90 μL buffer (9 M urea, 10 mM DTT, 50 mM TEAB pH 8.5). […]
Data processing: Cysteine engagement ratios (probe vs DMSO) were calculated for each peptide-spectra match by dividing each TMT reporter ion intensity by the average intensity for the channels corresponding to DMSO treatment. […]

T1 sequence (Q06323 whole entry): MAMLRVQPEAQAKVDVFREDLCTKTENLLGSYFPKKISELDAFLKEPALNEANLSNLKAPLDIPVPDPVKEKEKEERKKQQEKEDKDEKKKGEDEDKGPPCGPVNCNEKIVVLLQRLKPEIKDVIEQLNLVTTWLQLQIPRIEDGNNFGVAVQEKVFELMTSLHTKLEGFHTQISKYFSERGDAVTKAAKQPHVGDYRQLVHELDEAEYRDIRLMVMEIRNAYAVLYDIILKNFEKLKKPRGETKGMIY

SMILES: C=CC(=O)N1C[C@H](c2ccc(Br)cc2)[C@@H]1C(=O)Nc1cccc2cccnc12 [MY-1B, (2R,3S)-1-acryloyl-3-(4-bromophenyl)-N-(quinolin-8-yl)azetidine-2-carboxamide]
- IA-DTB reactivity of PSME1 C106 and PSME2 C91: striking, stereoselective increases in reactivity
